One compound from publication PMC7265491, “Inhibition of LIPG phospholipase activity suppresses tumor formation of human basal-like triple-negative breast cancer” (Scientific Reports, 2020) can be followed below.

The assay deals with T1, LIPG (endothelial lipase) (Homo sapiens, UniProt Q9Y5X9).
T1 construct: LIPG overexpressed in MDA-MB-468 cells
T1 sequence (Q9Y5X9 21-500): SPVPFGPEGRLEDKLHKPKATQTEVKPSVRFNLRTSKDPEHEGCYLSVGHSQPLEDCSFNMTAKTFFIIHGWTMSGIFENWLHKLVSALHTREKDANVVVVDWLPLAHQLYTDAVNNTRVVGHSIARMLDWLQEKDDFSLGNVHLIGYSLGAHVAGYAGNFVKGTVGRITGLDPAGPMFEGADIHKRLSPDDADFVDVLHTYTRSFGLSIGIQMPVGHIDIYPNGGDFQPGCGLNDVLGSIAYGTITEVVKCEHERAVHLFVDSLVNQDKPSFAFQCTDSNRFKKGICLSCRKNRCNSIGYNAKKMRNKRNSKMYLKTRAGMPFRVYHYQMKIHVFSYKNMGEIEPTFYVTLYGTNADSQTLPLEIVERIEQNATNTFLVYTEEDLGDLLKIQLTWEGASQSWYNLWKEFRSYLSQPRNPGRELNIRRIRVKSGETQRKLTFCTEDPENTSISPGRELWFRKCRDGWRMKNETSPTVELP
Kind of assay: cell-based fluorogenic phospholipase A1 assay (PED-A1 substrate) with LIPG-overexpressing MDA-MB-468 cells, parental-cell background subtracted.

Usually IC50 stands for the concentration that gives 50% inhibition. As to `O=C(O)c1cc(C(F)(F)F)ccc1N1CC[C@H](OCc2ccccn2)C1` [XEN445], the IC50 was found to be 2.17 µM.
